“Also recorded” adds a separate entry of the source.
How the values were obtained:
PC12 cells = assay: Number of neuron-like cells in nerve growth factor-differentiated PC12 cells (HCS microscopy); format: cell-based; details: NGF-differentiated PC12 cells, 24 hours post-treatment, normalized to 10 μM dimebolin; FIG. 1
Experimental: For example, studies were conducted using PC12 cells plated in 96-well plates, treated with or without nerve growth factor (100 ng/mL) for 6 days. Compounds were then added at various concentrations (ranging from 0.1 nM to 30 μM), and incubated for 24 hours. Cells were then fixed and stained by neuron marker β-tubulin (green), and nuclei were stained by Hoechst 33342 (blue). Images were collected using the ImageXpress Micro automatic fluorescent microscopy system (Molecular Devices, Sunnyvale, Calif.) employing a Nikon 10× Plan Fluor objective and Cool Snap HQ CCD camera. The Neurite Outgrowth module in the MetaMorph Imaging software was used to automatically count neuron-like number, and the extent of neurite outgrowth (See, FIG. 1).

[1] = tested on: primary postnatal (P0) cortical cells; assay: Neurite outgrowth assay (Aβ1-42-induced reduction of neurite outgrowth, high content microscopy); format: cell-based, rat; details: for Emax: Rattus norvegicus, maximum response relative to 300 nM dimebolin, at the concentration given, read-out: Maximum Effect (of % 300 nM Dimebolin)
Experimental: In addition to PC12 cells, other cellular model systems may also be used. Rat cortical cells were cultured and prepared for high content microscopy analysis as previously described (Hu, M.; Schurdak, M. E.; et al. High content screen microscopy analysis of Aβ1-42-induced neurite outgrowth reduction in rat primary cortical neurons: Neuroprotective effects of α7 neuronal nicotinic acetylcholine receptor ligands. Brain Res. 2007, 1151, 227-235.). Briefly, cortical cell cultures were plated at density of 5×10^5 cells/mL onto poly-D-lysine coated 96-well plates and maintained in a cell incubator at 37° C. with 5% CO2. Experiments were performed using 6-7 day-old cortical cell cultures by treating with test compounds. In some experiments, the effect of test compounds on reversing Aβ toxicity were also measured (Hu, M.; Schurdak, M. E.; et al. High content screen microscopy analysis of Aβ1-42-induced neurite outgrowth reduction in rat primary cortical neurons: Neuroprotective effects of α7 neuronal nicotinic acetylcholine receptor ligands. Brain Res. 2007, 1151, 227-235.). For assessment of neuroprotective effects, cells were first pretreated with test compounds for about 5 hours. Medium was then replaced with the medium containing freshly prepared about 5 μM Aβ1-42 peptide in the absence or presence of the test compounds for 3 days. The untreated group contained the same percentage of vehicle (DMSO) as in the treatment groups. Cells were fixed with approximately 4% paraformaldehyde containing 0.5% Hoechst 33342 for about 15 minutes, followed by three washes using PBS (pH 7.4) and blocked with 10% donkey serum in PBS for 1 hour at room temperature. The cells were then incubated overnight at about 4° C. with mouse anti-tubulin monoclonal antibody (1:100) for staining neurons and rabbit anti-GFAP (1:1000) for staining glia. In the next day, cells were incubated with FITC-labeled anti-mouse and TRITC-labeled anti-rabbit antibodies (1:1000) for about 1 hour at room temperature. After fixing and staining the cells, nuclei (360/400 nm excitation and 465/300 nm emission filters), neuron (475/350 nm excitation and 535/400 nm emission filters) and glial cell (535 nm excitation and 610 nm emission filters) images were collected using the ImageExpress Micro automatic fluorescent microscopy system (Molecular Devices, Sunnyvale, Calif.) employing a Nikon 10× Plan Fluor objective and Cool Snap HQ CCD camera. The Neurite Outgrowth module in the MetaMorph Imaging software was used to automatically count total cell number, number of neuron cells, and the extent of neurite outgrowth.
In the graph of FIG. 2, 100% response was the response observed for untreated cells. Exposure to Aβ1-42 produced a decrease in neurite outgrowth. Treatment of cells with compounds prior to and concomitantly with Aβ1-42 gave a neuroprotective effect with neurite outgrowth maintained or enhanced relative to untreated cells.

Male Sprague Dawley rats = assay: Analgesic effect against neuropathic pain (L5/L6 spinal nerve ligation, von Frey filaments); format: in vivo; details: rat
Experimental: Animals were prepared for testing, by use of a surgical procedure that induces neuropathic pain in one paw. Male Sprague Dawley rats were purchased from Charles River (Portage, Mich.). Prior to surgery, animals were housed in groups and maintained in a temperature-regulated environment. Following nerve ligation surgery, animals were housed in groups, and had access to food and water ad libitum.
The L5 and L6 spinal nerves of anesthetized rats were tightly ligated in a manner described previously (see Kim and Chung, Pain (1992) vol. 50 pp. 355-363). An incision was made on the dorsal portion of the hip and the muscle was blunt-dissected to reveal the spinal processes. The L6 transverse process was removed, and the left side L5 and L6 spinal nerves were tightly ligated with 5.0 braided silk suture. The wound was cleaned, the membrane sewn with 4.0 dissolvable Vicryl suture and the skin closed with wound clips. The paw affected by the surgical procedure (the left paw) develops an allodynic response, a hypersensitivity to mechanical and other stimuli; neuropathic pain is assessed as an increased sensitivity in the surgically affected (left) allodynic paw compared to the control paw on the right side, and measured by comparing the response of the (left side) allodynic paw to the response of the unaffected right side control paw.
For the assessment of neuropathic pain, mechanical allodynia in the affected paw of animals that had undergone spinal nerve ligation was evaluated using testing with von Frey filaments. As described previously by S. R. Chaplan, et al (“Quantitative assessment of tactile allodynia in the rat paw” J. Neurosci. Meth. (1994) vol. 53 pp. 55-63), two weeks following surgery rats were acclimated to a testing box constructed of plexiglass with a wire mesh floor which allowed access to the plantar surface of the animal's hindpaws. […] The efficacy of the compound in reducing neuropathic pain at different doses was determined by comparing response in the surgery-affected paw versus the response in the control paw. […]

mice = assay: Inhibitory avoidance in mouse; format: in vivo; details: 24-hour recall, significant at 0.11 mg/kg and 1.1 mg/kg, FIG. 4
Experimental: Inhibitory Avoidance in Mouse: The inhibitory avoidance task involves the uses of a two-compartment step through apparatus (Ugo Basile, Collegeville, Pa.) that measures the animal's ability to remember a brief noxious stimulus (foot shock), and is considered a measure of trial learning, and memory consolidation. Briefly, mice were placed in a lighted compartment of the apparatus where the latency to enter into the preferred dark compartment is recorded. […] Retention testing was conducted 24 hours later with the animal again placed in the lighted compartment where its latency to reenter the dark side of the apparatus was measured (no shock). Increasing retention latency was regarded as an index of memory consolidation (Bitner, R. S.; Bunnelle, W. H.; et al. Broad-spectrum efficacy across cognitive domains by α7 nicotinic acetylcholine receptor agonism correlates with activation of ERK1/2 and CREB phosphorylation pathways. J. Neurosci. 2007, 27(39), 10578-10587.).

[2] = tested on: SK-N-SH human neuroblastoma cells; assay: Serum deprivation/JC-1 mitochondrial membrane potential (MMP) assay; format: cell-based
Method in brief: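 Cells were serum-deprived ~18 h in MEM with or without compound (DMSO ≤1%), then stained with JC-1 for 35 min at 37° C. The red/green fluorescence ratio (560/595 vs 485/535 nm) was normalized to the peak response of 10 μM dimebolin. EC50 came from one curve fit to mean data (n=2-3, duplicates).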

[3] = tested on: primary rat cortical neurons; details: comparable to that evoked by BDNF; cited from earlier work
[4] = tested on: Patients with mild-to-moderate Alzheimer's disease; details: cited from earlier work
[5] = tested on: mouse model of multiple sclerosis; details: in vivo administration; cited from earlier work

Cc1ccc2c(c1)c1c(n2CCc2ccc(C)nc2)CC2CCC1N2C (stereo not drawn) [Example 1, 2,11-dimethyl-5-[2-(6-methylpyridin-3-yl)ethyl]-5,6,7,8,9,10-hexahydro-7,10-epiminocyclohepta[b]indole]
number of neuron-like cells (PC12 cells): concentration-dependent effects

Cc1ccc2c(c1)c1c(n2CCc2ccc(C)nc2)C2CCN(CC2)C1 [Example 2, 9-methyl-6-[2-(6-methylpyridin-3-yl)ethyl]-3,4,5,6-tetrahydro-1H-2,5-ethanoazepino[4,3-b]indole]
Emax [1]: 117% | reduction in mechanical allodynia (Male Sprague Dawley rats; 10 mg/kg intraperitoneal injection, 30 minutes before testing, **p<0.01, ***p<0.001 vs. vehicle, FIG. 6): 58% | adverse effects (Male Sprague Dawley rats; i.p. 1, 3, and 10 mg/kg): No complicating adverse effects were observed | withdrawal threshold for allodynic limb (pressure applied to elicit a pain response) (Male Sprague Dawley rats; intraperitoneally 30 minutes before testing, maximum effect 15 g): concentration-dependent improvement

Cc1ccc2c(c1)c1c(n2CCc2ccc(C)nc2)C[C@@H]2CC[C@H]1N2 (single isomer, unassigned) [Example 5]
latency to reenter the dark side (punishment side) (mice): significantly increased; also recorded: concentration-dependent improvement | Emax [1]: 123% | Aβ1-42-induced reduction of neurite outgrowth ([1]; pretreatment about 5 hours, then about 5 μM Aβ1-42 with test compound for 3 days, FIG. 2): significant attenuation; also recorded: neurite outgrowth levels similar to or enhanced relative to untreated control cells | Emax ([2]; Homo sapiens, SK-N-SH, percent maximal intensity in JC-1 ratio normalized to 10 μM dimebolin, read-out: JC-1 max %): 209% | EC50 ([2]; Homo sapiens, SK-N-SH cells, serum deprivation ~18 hours, JC-1 ratio normalized to peak value for 10 μM dimebolin, single curve fit to mean data of n=2-3, read-out: EC50): 13 µM | maintenance of mitochondrial function (JC-1 ratio) under cellular stress ([2]; SK-N-SH cells, relative to 10 μM dimebolin (100% response), FIG. 3): maintained mitochondrial function in a dose dependent manner; also recorded: concentration-dependent enhancement of mitochondrial function maintenance

Cc1ccc2c(c1)c1c(n2CCc2ccc(C)nc2)CCN(C)C1 [dimebolin, 2,3,4,5-tetrahydro-2,8-dimethyl-5-[2-(6-methyl-3-pyridinyl)ethyl]-1H-pyrido[4,3-b]indole]
neurite outgrowth [3]: increase neurite outgrowth | clinical course of disease (improvement over baseline for ADAS-Cog) ([4]; 20 mg three times a day (60 mg/day)): significant improvement | most frequent adverse event ([4]; clinical studies of dimebolin): dry mouth

O=C1C=C(c2ccccc2)C(=O)N1c1cccc(Cl)c1 [1-(3-chlorophenyl)-3-phenyl-pyrrole-2,5-dione]
development of the disease [5]: significantly prevented the development of the disease
